From ChEMBL document CHEMBL1201861, “Genomics of Drug Sensitity in Cancer screening data, Wellcome Trust Sanger Institute”

Columns and labels:
Experiment in all cases: cells
COLO-792 = type: functional, cell-based, Homo sapiens; conditions: Homo sapiens, COLO-792
Description: SANGER: Inhibition of human COLO-792 cell growth in a cell viability assay.

COR-L88 = type: functional, cell-based; conditions: Homo sapiens;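 note: growth inhibition of COR-L88 cells, read out with a cell viability assay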
Description: SANGER: Inhibition of human COR-L88 cell growth in a cell viability assay.

CP50-MEL-B = type: functional, cell-based, Homo sapiens; conditions: Homo sapiens, CP50-MEL-B;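 note: growth inhibition of the human cell line, measured with a cell viability read-out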
Description: SANGER: Inhibition of human CP50-MEL-B cell growth in a cell viability assay.

CTB-1 = type: functional, cell-based; conditions: Homo sapiens
Description: SANGER: Inhibition of human CTB-1 cell growth in a cell viability assay.

Calu-6 = type: functional, cell-based, Homo sapiens; conditions: Homo sapiens, Calu-6;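 note: growth of human Calu-6 cells, read out by a cell viability assay, IC50 marking inhibition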
Description: SANGER: Inhibition of human Calu-6 cell growth in a cell viability assay.

D-502MG = type: functional, cell-based, Homo sapiens; conditions: Homo sapiens, D-502MG
Description: SANGER: Inhibition of human D-502MG cell growth in a cell viability assay.

DJM-1 = type: functional, cell-based, Homo sapiens; conditions: Homo sapiens, DJM-1;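 note: growth inhibition of human DJM-1 cells, read out by a cell viability assay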
Description: SANGER: Inhibition of human DJM-1 cell growth in a cell viability assay.

GAK = type: functional, cell-based, Homo sapiens; conditions: Homo sapiens, GAK;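 note: cell growth inhibition read out by a cell viability assay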
Description: SANGER: Inhibition of human GAK cell growth in a cell viability assay.

GT3TKB = type: functional, cell-based, Homo sapiens; conditions: Homo sapiens, GT3TKB;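 note: growth inhibition of the cell line, read out with a cell viability assay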
Description: SANGER: Inhibition of human GT3TKB cell growth in a cell viability assay.

HD-MY-Z = type: functional, cell-based, Homo sapiens; conditions: Homo sapiens, HD-MY-Z;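 note: growth inhibition of HD-MY-Z cells, read out with a cell viability assay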
Description: SANGER: Inhibition of human HD-MY-Z cell growth in a cell viability assay.

HSC-2 = type: functional, cell-based, Homo sapiens; conditions: Homo sapiens, HSC-2;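 note: growth inhibition of human HSC-2 cells, read out by a cell viability assay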
Description: SANGER: Inhibition of human HSC-2 cell growth in a cell viability assay.

HT-29 = type: functional, cell-based, Homo sapiens; conditions: Homo sapiens, HT-29;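 note: growth inhibition of human HT-29 cells, read out by a cell viability assay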
Description: SANGER: Inhibition of human HT-29 cell growth in a cell viability assay.

J-RT3-T3-5 = type: functional, cell-based; conditions: Homo sapiens;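 note: cell viability assay measuring growth inhibition of human J-RT3-T3-5 cells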
Description: SANGER: Inhibition of human J-RT3-T3-5 cell growth in a cell viability assay.

J82 = type: functional, cell-based; conditions: Homo sapiens;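 note: growth inhibition of J82 cells, read out with a cell viability assay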
Description: SANGER: Inhibition of human J82 cell growth in a cell viability assay.

KNS-42 = type: functional, cell-based, Homo sapiens; conditions: Homo sapiens, KNS-42;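 note: growth inhibition of KNS-42 cells, read out with a cell viability assay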
Description: SANGER: Inhibition of human KNS-42 cell growth in a cell viability assay.

KYSE-180 = type: functional, cell-based, Homo sapiens; conditions: Homo sapiens, KYSE-180;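 note: growth inhibition of KYSE-180 cells, read out with a cell viability assay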
Description: SANGER: Inhibition of human KYSE-180 cell growth in a cell viability assay.

LAMA-84 = type: functional, cell-based; conditions: Homo sapiens;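 note: growth inhibition of LAMA-84 cells, read out with a cell viability assay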
Description: SANGER: Inhibition of human LAMA-84 cell growth in a cell viability assay.

LAN-6 = type: functional, cell-based, Homo sapiens; conditions: Homo sapiens, LAN-6;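 note: growth inhibition of LAN-6 cells, determined with a cell viability assay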
Description: SANGER: Inhibition of human LAN-6 cell growth in a cell viability assay.

LN-405 = type: functional, cell-based, Homo sapiens; conditions: Homo sapiens, LN-405
Description: SANGER: Inhibition of human LN-405 cell growth in a cell viability assay.

LU-99A = type: functional, cell-based, Homo sapiens; conditions: Homo sapiens, LU-99A;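 note: growth inhibition of LU-99A cells, read out with a cell viability assay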
Description: SANGER: Inhibition of human LU-99A cell growth in a cell viability assay.

LXF-289 cell line = type: functional, cell-based, Homo sapiens; conditions: Homo sapiens, LXF-289
Description: SANGER: Inhibition of human LXF-289 cell growth in a cell viability assay.

MHH-ES-1 = type: functional, cell-based, Homo sapiens; conditions: Homo sapiens, MHH-ES-1;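 note: cell growth inhibition measured by a cell viability assay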
Description: SANGER: Inhibition of human MHH-ES-1 cell growth in a cell viability assay.

NB13 = type: functional, cell-based, Homo sapiens; conditions: Homo sapiens, NB13;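 note: cell viability readout measuring growth inhibition of human NB13 cells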
Description: SANGER: Inhibition of human NB13 cell growth in a cell viability assay.

NCI-H1623 = type: functional, cell-based, Homo sapiens; conditions: Homo sapiens, NCI-H1623;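 note: cell viability assay used as the read-out for growth inhibition of NCI-H1623 cells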
Description: SANGER: Inhibition of human NCI-H1623 cell growth in a cell viability assay.

NCI-H2122 = type: functional, cell-based, Homo sapiens; conditions: Homo sapiens, NCI-H2122;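 note: growth inhibition of the cells, read out with a cell viability assay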
Description: SANGER: Inhibition of human NCI-H2122 cell growth in a cell viability assay.

NCI-H2170 = type: functional, cell-based, Homo sapiens; conditions: Homo sapiens, NCI-H2170;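 note: cell viability assay measuring growth inhibition of human NCI-H2170 cancer cells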
Description: SANGER: Inhibition of human NCI-H2170 cell growth in a cell viability assay.

NCI-H28 = type: functional, cell-based, Homo sapiens; conditions: Homo sapiens, NCI-H28;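 note: growth inhibition of human NCI-H28 cells, read out as cell viability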
Description: SANGER: Inhibition of human NCI-H28 cell growth in a cell viability assay.

PANC-03-27 = type: functional, cell-based, Homo sapiens; conditions: Homo sapiens, PANC-03-27
Description: SANGER: Inhibition of human PANC-03-27 cell growth in a cell viability assay.

PC-14 = type: functional, cell-based, Homo sapiens; conditions: Homo sapiens, PC-14;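 note: cell viability assay measuring inhibition of PC-14 cell growth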
Description: SANGER: Inhibition of human PC-14 cell growth in a cell viability assay.

RPMI-8866 = type: functional, cell-based; conditions: Homo sapiens
Description: SANGER: Inhibition of human RPMI-8866 cell growth in a cell viability assay.

SHP77 = type: functional, cell-based, Homo sapiens, SHP-77; conditions: Homo sapiens, SHP77;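 note: growth inhibition of human SHP-77 cells measured by a cell viability assay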
Description: SANGER: Inhibition of human SHP-77 cell growth in a cell viability assay.

SK-MEL-28 = type: functional, cell-based; conditions: Homo sapiens;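 note: growth inhibition of human SK-MEL-28 cells, read out with a cell viability assay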
Description: SANGER: Inhibition of human SK-MEL-28 cell growth in a cell viability assay.

SK-PN-DW = type: functional, cell-based; conditions: Homo sapiens;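 note: growth inhibition measured with a viability assay on these cells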
Description: SANGER: Inhibition of human SK-PN-DW cell growth in a cell viability assay.

SNU-C2B = type: functional, cell-based, Homo sapiens; conditions: Homo sapiens, SNU-C2B;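 note: cell viability readout used to measure compound-driven suppression of SNU-C2B cell proliferation, IC50 marking half-maximal growth inhibition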
Description: SANGER: Inhibition of human SNU-C2B cell growth in a cell viability assay.

SAOS-2 = type: functional, cell-based, Homo sapiens; conditions: Homo sapiens, SAOS-2;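 note: growth inhibition of human Saos-2 cells determined by a cell viability assay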
Description: SANGER: Inhibition of human Saos-2 cell growth in a cell viability assay.

769-P = type: functional, cell-based, Homo sapiens; conditions: Homo sapiens, 769-P
Description: SANGER: Inhibition of human 769-P cell growth in a cell viability assay.

A204 = type: functional, cell-based, Homo sapiens; conditions: Homo sapiens, A204;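 note: growth inhibition of human A204 cells, read out with a cell viability assay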
Description: SANGER: Inhibition of human A204 cell growth in a cell viability assay.

A-427 = type: functional, cell-based, Homo sapiens; conditions: Homo sapiens, A-427;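 note: growth inhibition of human A-427 cells, read out by a cell viability assay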
Description: SANGER: Inhibition of human A427 cell growth in a cell viability assay.

BB30-HNC = type: functional, cell-based, Homo sapiens; conditions: Homo sapiens, BB30-HNC;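 note: growth inhibition of the cultured cell line, read out by a cell viability assay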
Description: SANGER: Inhibition of human BB30-HNC cell growth in a cell viability assay.

BHT-101 = type: functional, cell-based, Homo sapiens; conditions: Homo sapiens, BHT-101
Description: SANGER: Inhibition of human BHT-101 cell growth in a cell viability assay.

BPH-1 = type: functional, cell-based, Homo sapiens; conditions: Homo sapiens, BPH-1;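 note: cell viability assay measuring growth inhibition of human BPH-1 cells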
Description: SANGER: Inhibition of human BPH-1 cell growth in a cell viability assay.

BV-173 = type: functional, cell-based; conditions: Homo sapiens
Description: SANGER: Inhibition of human BV-173 cell growth in a cell viability assay.

C2BBe1 = type: functional, cell-based, Homo sapiens; conditions: Homo sapiens, C2BBe1;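 note: growth inhibition of C2BBe1 cells, read out through a viability assay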
Description: SANGER: Inhibition of human C2BBe1 cell growth in a cell viability assay.

CAL-12T = type: functional, cell-based, Homo sapiens; conditions: Homo sapiens, CAL-12T;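 note: growth inhibition of human CAL-12T cells, read out with a cell viability assay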
Description: SANGER: Inhibition of human CAL-12T cell growth in a cell viability assay.

TE-9 = type: functional, cell-based, Homo sapiens; conditions: Homo sapiens, TE-9;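 note: cell growth inhibition, measured with a cell viability readout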
Description: SANGER: Inhibition of human TE-9 cell growth in a cell viability assay.

TK-10 = type: functional, cell-based, Homo sapiens; conditions: Homo sapiens, TK-10;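 note: growth inhibition of TK-10 cells, read out in a cell viability assay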
Description: SANGER: Inhibition of human TK10 cell growth in a cell viability assay.

VM-CUB-1 = type: functional, cell-based; conditions: Homo sapiens;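 note: cell viability assay measuring growth inhibition of the human VM-CUB-1 cell line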
Description: SANGER: Inhibition of human VM-CUB-1 cell growth in a cell viability assay.

YKG-1 = type: functional, cell-based, Homo sapiens; conditions: Homo sapiens, YKG-1;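 note: cell growth inhibition, read out with a viability assay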
Description: SANGER: Inhibition of human YKG-1 cell growth in a cell viability assay.

CGTH-W-1 = type: functional, cell-based, Homo sapiens; conditions: Homo sapiens, CGTH-W-1;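 note: growth inhibition of human CGTH-W-1 cells measured by cell viability assay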
Description: SANGER: Inhibition of human CGTH-W-1 cell growth in a cell viability assay.

COLO-678 = type: functional, cell-based, Homo sapiens; conditions: Homo sapiens, COLO-678
Description: SANGER: Inhibition of human COLO-678 cell growth in a cell viability assay.

COLO-680N = type: functional, cell-based, Homo sapiens; conditions: Homo sapiens, COLO-680N;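 note: cell viability assay used to measure inhibition of COLO-680N cell growth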
Description: SANGER: Inhibition of human COLO-680N cell growth in a cell viability assay.

CCC1=C[C@@H]2CN(C1)Cc1c([nH]c3ccccc13)[C@@](C(=O)OC)(c1cc3c(cc1OC)N(C)[C@H]1[C@@](O)(C(=O)OC)[C@H](OC(C)=O)[C@]4(CC)C=CCN5CC[C@]31[C@@H]54)C2 [VINORELBINE]
IC50 (COLO-792): > 64 nM | IC50 (COR-L88): 34.8 nM | IC50 (CP50-MEL-B): 43.4 nM | IC50 (CTB-1): 19.8 nM | IC50 (Calu-6): 5.7 nM | IC50 (D-502MG): > 64 nM | IC50 (DJM-1): 15.9 nM | IC50 (GAK): > 64 nM | IC50 (GT3TKB): 0.748 nM | IC50 (HD-MY-Z): 29.2 nM | IC50 (HSC-2): 2.25 nM | IC50 (HT-29): 3.24 nM | IC50 (J-RT3-T3-5): 6.83 nM | IC50 (J82): > 64 nM | IC50 (KNS-42): 8.03 nM | IC50 (KYSE-180): 7.13 nM | IC50 (LAMA-84): 45.8 nM | IC50 (LAN-6): > 64 nM | IC50 (LN-405): > 64 nM | IC50 (LU-99A): 6.24 nM | IC50 (LXF-289 cell line): 4.68 nM | IC50 (MHH-ES-1): 3.89 nM | IC50 (NB13): 5.01 nM | IC50 (NCI-H1623): 28.5 nM | IC50 (NCI-H2122): 2.59 nM | IC50 (NCI-H2170): 11.6 nM | IC50 (NCI-H28): > 64 nM | IC50 (PANC-03-27): 5.95 nM | IC50 (PC-14): 3.26 nM | IC50 (RPMI-8866): 7 nM | IC50 (SHP77): > 64 nM | IC50 (SK-MEL-28): > 64 nM | IC50 (SK-PN-DW): 12.5 nM | IC50 (SNU-C2B): 7.75 nM | IC50 (SAOS-2): > 64 nM | IC50 (769-P): 16.9 nM | IC50 (A204): 3.21 nM | IC50 (A-427): 3.1 nM | IC50 (BB30-HNC): 0.399 nM | IC50 (BHT-101): > 64 nM | IC50 (BPH-1): 1.9 nM | IC50 (BV-173): 30.4 nM | IC50 (C2BBe1): > 64 nM | IC50 (CAL-12T): 20.8 nM | IC50 (TE-9): 1.08 nM | IC50 (TK-10): > 64 nM | IC50 (VM-CUB-1): 19.1 nM | IC50 (YKG-1): 3.73 nM | IC50 (CGTH-W-1): 0.232 nM | IC50 (COLO-678): > 64 nM | IC50 (COLO-680N): 53.3 nM
